The structures appear in SMILES notation.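 Values below derive from 48-hour exposures of cells grown in 96-well plates, with endpoints linearly interpolated between the two concentrations bracketing the appropriate inhibition level. The concentration for full growth arrest is given as TGI.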 Bounds are passed on as bounds.

Some test systems named below: BT-549 breast; HOP-62 NSCLC; IGROV1 ovarian; KM12 colon; MDA-MB-435; OVCAR-4 ovarian; PC-3 prostate; RXF 393 renal; SN12C renal; SR leukemia; TK-10 renal.
Common to all, as to test: NCI tumour cell line growth inhibition, 48 h

`N#Cc1nc(Cc2ccccc2)oc1N`: the TGI in the assay with BT-549 breast, in the assay with HOP-62 NSCLC, with IGROV1 ovarian, with KM12 colon, with MDA-MB-435 and in the assay with OVCAR-4 ovarian was above 100 µM in each case. The TGI with PC-3 prostate, in the assay with RXF 393 renal, with SN12C renal, in the assay on SR leukemia and in the assay on TK-10 renal was above 100 µM in each case.
As for `N#Cc1nsnc1-c1nc(-c2nsnc2C#N)nc(-c2nsnc2C#N)n1`, the TGI with BT-549 breast, with HOP-62 NSCLC, in the assay on IGROV1 ovarian, in the assay with KM12 colon, in the assay on MDA-MB-435 and in the assay on OVCAR-4 ovarian was above 100 µM each time. The TGI with PC-3 prostate, in the assay on RXF 393 renal, in the assay on SN12C renal, in the assay on SR leukemia and in the assay on TK-10 renal was above 100 µM throughout.
Regarding `COc1ccc(NC(C)=O)c(C(=O)CCNC(C)=O)c1`, the TGI in the assay on BT-549 breast, in the assay on IGROV1 ovarian, in the assay on KM12 colon, in the assay on MDA-MB-435, in the assay on OVCAR-4 ovarian and in the assay with PC-3 prostate was above 100 µM throughout. The TGI in the assay on RXF 393 renal, in the assay on SN12C renal, in the assay with SR leukemia and with TK-10 renal was above 100 µM in each case.
In the case of `Cc1ccc(-c2c(C#N)c(S)n(NS(=O)(=O)c3ccccc3)c(=O)c2C#N)cc1`, the TGI is 73.3 µM in the assay on BT-549 breast; 85.4 µM in the assay on IGROV1 ovarian; 77.6 µM in the assay on KM12 colon; 78.9 µM in the assay on MDA-MB-435; above 100 µM in the assay on OVCAR-4 ovarian; above 100 µM with PC-3 prostate. Also, the TGI in the assay on RXF 393 renal is above 100 µM; in the assay with SN12C renal, above 100 µM; in the assay on SR leukemia it was 58.1 µM; in the assay on TK-10 renal it was 65.7 µM.
For the compound `CCOP(=O)(OCC)C(Cc1ccccc1)N=C(c1ccccc1)c1ccccc1` (stereo unspecified), the TGI turned out to be 27 µM with BT-549 breast; 35.2 µM with HOP-62 NSCLC; 26.8 µM in the assay with IGROV1 ovarian; 32.2 µM in the assay with KM12 colon; 27.8 µM in the assay on MDA-MB-435; 38.3 µM in the assay with OVCAR-4 ovarian. The TGI in the assay on PC-3 prostate is 16.8 µM; in the assay on SN12C renal it was 35.2 µM; in the assay with SR leukemia, above 100 µM; in the assay with TK-10 renal, 23.6 µM.
As to `O=C1CNc2cc(N3CCN(c4cccc(C(F)(F)F)c4)CC3)ccc2N1`, the TGI with BT-549 breast, in the assay with HOP-62 NSCLC, in the assay on IGROV1 ovarian, in the assay with KM12 colon, in the assay on MDA-MB-435 and in the assay with OVCAR-4 ovarian was above 100 µM throughout. The TGI is above 82.7 µM with PC-3 prostate, above 100 µM in the assay on SN12C renal, above 100 µM in the assay with SR leukemia and above 100 µM in the assay with TK-10 renal.
Consider `CO/N=C1/C(n2[nH]c(=O)n(-c3ccccc3)c2=O)C2C=CC1n1c(=O)n(-c3ccccc3)c(=O)n12` (stereo unspecified), for which the TGI with BT-549 breast, in the assay with IGROV1 ovarian, in the assay on KM12 colon, in the assay on MDA-MB-435, in the assay on OVCAR-4 ovarian and in the assay on PC-3 prostate was above 100 µM each time. The TGI with RXF 393 renal, in the assay on SN12C renal, in the assay on SR leukemia and in the assay on TK-10 renal was above 100 µM throughout.
In the case of `C(/C=N/NC1=NCCN1)=N\NC1=NCCN1`, the TGI with BT-549 breast, in the assay on HOP-62 NSCLC, with IGROV1 ovarian, with KM12 colon, with MDA-MB-435 and in the assay on OVCAR-4 ovarian was above 100 µM throughout. Besides, the TGI with PC-3 prostate, in the assay on RXF 393 renal and in the assay on SR leukemia was above 100 µM in each case.
Take `C=CCOc1ccc(C2c3c([nH][nH]c3=O)CC(C)(O)C2C(=O)OC)cc1OC` (stereo unspecified): the TGI with BT-549 breast, in the assay on HOP-62 NSCLC, with IGROV1 ovarian, in the assay on KM12 colon, in the assay with MDA-MB-435 and with OVCAR-4 ovarian was above 100 µM in each case. The TGI in the assay on PC-3 prostate, in the assay with SN12C renal, in the assay with SR leukemia and with TK-10 renal was above 100 µM in each case.
Turning to `O=C(/C(Cl)=C/c1ccccc1)c1ccccc1`, the TGI with BT-549 breast came out at 6.49 µM; with HOP-62 NSCLC, 41.5 µM; in the assay with KM12 colon, 14.9 µM; in the assay on MDA-MB-435, 9.52 µM; with OVCAR-4 ovarian it was 16.9 µM; with PC-3 prostate, 11.6 µM. For the same compound, the TGI in the assay on RXF 393 renal came to 8.16 µM; in the assay on SN12C renal, 3.92 µM; in the assay on SR leukemia it was 6.47 µM; in the assay on TK-10 renal, 11.7 µM.
For `COc1ccc(/C=N/n2c(Cc3ccc(Cl)cc3)n[nH]c2=O)cc1`, the TGI in the assay with BT-549 breast was above 100 µM; in the assay with HOP-62 NSCLC, 33.9 µM; with IGROV1 ovarian it was 48 µM; with KM12 colon, above 100 µM; in the assay with MDA-MB-435 it was above 100 µM; with OVCAR-4 ovarian, above 100 µM. Moreover, the TGI is above 100 µM in the assay on PC-3 prostate, 35.1 µM with RXF 393 renal, above 100 µM in the assay with SN12C renal and above 100 µM with SR leukemia.
Turning to `C=CCC1(O)c2cccc(O)c2C(=O)c2cccc(O)c21` (stereo unspecified), the TGI is 47.4 µM in the assay on BT-549 breast; 49.7 µM in the assay on HOP-62 NSCLC; above 100 µM with IGROV1 ovarian; 85 µM in the assay on KM12 colon; 50.8 µM in the assay on MDA-MB-435; above 100 µM in the assay with OVCAR-4 ovarian. Besides, the TGI in the assay on PC-3 prostate is 47.3 µM; in the assay with RXF 393 renal, 37 µM; in the assay with SR leukemia, 36.3 µM; in the assay with TK-10 renal, 73.5 µM.
In the case of `NNC(=O)CCCCCCCC(=O)O`, the TGI in the assay with BT-549 breast, in the assay on HOP-62 NSCLC, in the assay on IGROV1 ovarian, with KM12 colon, in the assay on MDA-MB-435 and in the assay on OVCAR-4 ovarian was above 100 µM each time. The TGI in the assay with PC-3 prostate, with SN12C renal, in the assay on SR leukemia and with TK-10 renal was above 100 µM in each case.
For the compound `N#C[C@](CO)(NC(=O)OCc1ccccc1)C(F)F`, the TGI in the assay on BT-549 breast, in the assay with HOP-62 NSCLC, in the assay on IGROV1 ovarian, in the assay on KM12 colon, with MDA-MB-435 and in the assay on OVCAR-4 ovarian was above 100 µM each time. In addition, the TGI in the assay on PC-3 prostate, with RXF 393 renal, in the assay on SR leukemia and with TK-10 renal was above 100 µM throughout.

(Values after PubChem BioAssay (NCI).)
